Results published in ChEMBL document CHEMBL2029345, “BC-spiro-estradiols. Synthesis and estrogen receptor binding affinity of four new estradiol isomers” (Bioorg Med Chem Lett, 2012).

Tests used:
[1] = target: T1, Estrogen receptor (Homo sapiens) (UniProt P03372); assay: Displacement of [3H]estradiol from human full length estrogen receptor alpha by competitive radiometric assay relative to estradiol
T1 sequence (whole entry): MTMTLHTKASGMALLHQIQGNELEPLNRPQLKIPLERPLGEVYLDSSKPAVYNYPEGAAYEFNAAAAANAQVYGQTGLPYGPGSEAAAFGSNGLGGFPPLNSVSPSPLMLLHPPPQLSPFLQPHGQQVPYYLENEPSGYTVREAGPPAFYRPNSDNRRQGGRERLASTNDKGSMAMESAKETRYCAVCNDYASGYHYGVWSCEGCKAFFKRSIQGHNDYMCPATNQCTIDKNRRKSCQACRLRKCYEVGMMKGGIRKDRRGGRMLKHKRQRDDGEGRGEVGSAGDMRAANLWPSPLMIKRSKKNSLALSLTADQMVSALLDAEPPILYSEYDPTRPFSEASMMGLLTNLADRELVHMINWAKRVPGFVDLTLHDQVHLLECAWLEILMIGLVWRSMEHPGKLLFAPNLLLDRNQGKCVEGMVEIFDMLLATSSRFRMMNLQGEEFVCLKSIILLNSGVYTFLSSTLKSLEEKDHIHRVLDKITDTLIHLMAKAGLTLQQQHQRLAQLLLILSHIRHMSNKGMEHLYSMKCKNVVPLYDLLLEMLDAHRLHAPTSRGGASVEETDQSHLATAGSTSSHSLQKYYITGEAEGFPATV

[2] = target: Estrogen receptor beta (Homo sapiens) (UniProt Q92731); assay: Displacement of [3H]estradiol from human full length estrogen receptor beta by competitive radiometric assay relative to estradiol
Estrogen receptor beta (Homo sapiens), sequence (Q92731 whole entry): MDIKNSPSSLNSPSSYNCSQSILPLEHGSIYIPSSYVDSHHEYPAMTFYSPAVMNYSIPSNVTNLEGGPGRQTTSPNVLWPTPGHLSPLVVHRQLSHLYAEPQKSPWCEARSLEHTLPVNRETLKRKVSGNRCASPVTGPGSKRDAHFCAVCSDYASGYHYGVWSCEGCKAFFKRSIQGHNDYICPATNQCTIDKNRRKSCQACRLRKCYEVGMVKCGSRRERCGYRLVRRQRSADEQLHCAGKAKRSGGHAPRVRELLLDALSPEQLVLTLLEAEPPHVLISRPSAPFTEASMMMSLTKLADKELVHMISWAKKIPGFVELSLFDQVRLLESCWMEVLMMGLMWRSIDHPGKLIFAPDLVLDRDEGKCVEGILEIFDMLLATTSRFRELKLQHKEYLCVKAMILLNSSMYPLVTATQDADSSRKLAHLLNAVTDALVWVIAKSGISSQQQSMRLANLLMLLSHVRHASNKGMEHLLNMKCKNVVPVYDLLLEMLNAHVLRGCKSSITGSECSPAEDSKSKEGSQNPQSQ

| SMILES | relative binding affinity (RBA) [1] | relative binding affinity (RBA) [2] |
| --- | --- | --- |
| C[C@]12CC[C@]3(C[C@H]1CC[C@@H]2O)OCc1cc(O)ccc13 | 2.46 | 9.05 |
| C[C@]12CC[C@@]3(C[C@H]1CC[C@H]2O)OCc1cc(O)ccc13 | 0.014 | 0.02 |
| C[C@]12CC[C@@H](c3ccc(O)cc3)C[C@H]1CC[C@H]2O | 0.061 | 0.59 |
| C[C@]12CC[C@]3(C[C@H]1CC[C@@H]2O)OC(=O)c1cc(O)ccc13 | 1.98 | 6.07 |
| C[C@]12CC[C@H](c3ccc(O)cc3)C[C@@H]1CC[C@@H]2O | 2.38 | 9.97 |

Further lines, results first:

| relative binding affinity (RBA) [1] | relative binding affinity (RBA) [2] | SMILES |
| --- | --- | --- |
| 0.12 | 0.23 | C[C@]12CC[C@]3(CCc4cc(O)ccc43)C[C@@H]1CC[C@@H]2O |
| 3.7 | 39.7 | C[C@]12CC[C@@]3(CCCc4cc(O)ccc43)C[C@H]1CC[C@@H]2O |
| 0.98 | 2.43 | C[C@]12CC[C@@]3(CCc4cc(O)ccc43)C[C@@H]1CC[C@@H]2O |
| 6.4 | 40.5 | C[C@]12CC[C@@]3(CCc4cc(O)ccc43)C[C@H]1CC[C@@H]2O |
| 0.31 | 3.47 | C[C@]12CC[C@]3(C[C@H]1CC[C@@H]2O)OCCc1cc(O)ccc13 |
| 0.05 | 0.16 | C[C@]12CC[C@]3(CCCc4cc(O)ccc43)C[C@H]1CC[C@H]2O |
| 0.34 | 0.37 | C[C@]12CC[C@]3(CCc4cc(O)ccc43)C[C@H]1CC[C@H]2O |
